Reference: patent US20030134859A1 (SANKYO COMPANY, LIMITED, priority 2000, published 2003)

Legend:
[1] = system: Mouse preadipocyte strain 3T3-L1; assay: Inhibition of differentiation as an indication of acetic acid uptake; assay type: cell-based; settings: Mus musculus, 0.1 μM test substance, control (0.01% dimethylsulfoxide) = 100%, read-out: Rate of Uptake (%) of [2-14C] acetic acid
Method in brief: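 Differentiation is indexed by 1 hr [2-14C]acetic acid incorporation, measured by scintillation counting and given as uptake relative to 0.01% DMSO control (100%). Mouse 3T3-L1 preadipocytes, pre-grown 10 days, received 0.1 μM test substance throughout a 4-day insulin/IBMX/dexamethasone induction, followed by 2 days' maintenance culture.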

TNF-α production = assay: Inhibitory activity against cytokine (TNF-α) production in LPS-stimulated RAW264.7 cells; assay type: cell-based, mouse; settings: Mus musculus, 1 μM test compound, LPS 10 ng/mL
Experimental: The mouse monocyte/macrophage cell line, RAW264.7 (ATCC TIB71) was purchased from Dainippon Pharmaceutical Co., Ltd. The RAW264.7 cells were cultured in a CO2 incubator (37° C., 95% of humidity, 5% of CO2) by using the Dulbecco's modified Eagle's medium (DMEM medium; GIBCO, Cat. No. 11995-040) containing bovine fetal serum (the final concentration: 10% (v/v), MOREGATE, lot No. 474030), penicillin G (the final concentration: 50 units/mL […], GIBCO) and streptomycin (the final concentration: 20 μg/mL, GIBCO).
Sixty (60) μL of the RAW264.7 cell suspension (83,000 cells/mL) were plated into each well of a 96-well microplate (5,000 cells/well). After the cells were cultured for 4 hr in a CO2 incubator, 40 μL of DMEM medium containing 25 ng/mL of LPS (Sigma-Aldrich Japan K. K.) were added into each well (final concentration of LPS: 10 ng/mL). The test compound dissolved in DMSO at a concentration of 1 mM was diluted with DMEM medium by 20 times. Then 2 μL/well of the diluted solution were added to wells containing the plated cells (final concentration of the test compound: 1 μM). As the control, 2 μL/well of DMSO diluted with DMEM medium by 20 times were added to wells containing the plated cells either with LPS (final concentration: 10 ng/mL) or without LPS. After these cells were cultured in a CO2 incubator for 15 hr, the supernatant of the medium was recovered. The amount of mTNF-α in the medium supernatant was determined with a mouse TNF-α ELISA kit Quantikine M (R&D System), according to the experiment protocol attached with the kit.
The inhibitory activity of the test compound against TNF-α production was calculated according to the following equation.
A: The amount of TNF-α in the presence of test compound
B: The amount of TNF-α in the control without LPS
C: The amount of TNF-α in the control with 10 ng/mL of LPS
Inhibitory Activity of the Test Compound against TNF-α Production (%)=100−(A−B)/(C−B)×100

human PPAR γ 2 = biological target: T1, human PPAR γ 2 (Homo sapiens, UniProt P37231); assay: Inhibitory activity against PPAR γ transcription in the presence of agonist compound A, luciferase reporter; assay type: cell-based; settings: in the presence of 10 nM compound A (agonist); MG63 cells transfected with pSG5-hPPARg and pGV-P2-PPRE; 24 hr
T1 construct: expressed in transfected cells; host or cells: human osteosarcoma MG63, transiently co-transfected with pSG5-hPPARg and the reporter pGV-P2-PPRE
T1 sequence (P37231 1-505): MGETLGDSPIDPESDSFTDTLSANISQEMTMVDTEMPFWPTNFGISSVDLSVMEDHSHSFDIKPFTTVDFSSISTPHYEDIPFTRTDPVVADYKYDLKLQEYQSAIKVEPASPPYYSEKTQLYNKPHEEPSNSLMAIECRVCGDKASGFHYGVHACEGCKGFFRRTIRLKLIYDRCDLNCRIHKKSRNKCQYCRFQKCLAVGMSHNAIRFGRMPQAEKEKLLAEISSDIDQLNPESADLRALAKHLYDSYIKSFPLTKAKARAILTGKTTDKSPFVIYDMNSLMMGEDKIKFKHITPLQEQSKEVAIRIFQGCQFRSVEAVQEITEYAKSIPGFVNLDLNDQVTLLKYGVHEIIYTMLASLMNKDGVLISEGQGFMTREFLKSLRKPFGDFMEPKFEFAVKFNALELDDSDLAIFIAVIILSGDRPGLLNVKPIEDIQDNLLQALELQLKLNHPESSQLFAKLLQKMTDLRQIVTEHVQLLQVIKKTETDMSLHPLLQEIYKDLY
Excerpt: The primers of the polymerase chain reaction (hereinafter “PCR”) were designed according to the gene sequence of human PPAR γ 2 (GenBANK accession No. D83233). […] For this, 2 kinds of polynucleotides shown in the sequence numbers 1 and 2 in the sequence table described below (hereinafter “S1” and “AS1”, respectively) were used as PCR primers.
In order to determine transcriptional activity via PPAR γ, 2 kinds of polynucleotides represented in sequence numbers 3 and 4 in the sequence table described below (hereinafter “S2” and “AS2”, respectively) were used for construction of the reporter plasmid having PPAR responsive element. The DNA fragment inserted was designed based on the gene sequence in the promoter region of rat acylCo-A oxidase (J. D. Tugwood, EMBO J., 11 (2), pp433-439 (1992)). For insertion of the DNA fragment into the reporter plasmid pGV-P2 (TOYO INK MFG CO., LTD), a NheI site and an XhoI site were added to the S2 and AS2, respectively.
Using cDNA library (Clontech) derived from human adipose tissue as a template, DNA oligomers S1 and AS1 that were synthesized in the procedure 1 as primers and Ex-Taq™ (TAKARA BIO INC.) as a thermostable DNA polymerase-PCR was carried out. […] Each cycle consisted of incubation at 94° C. for 1 min for denaturation of the template, then at 55° C. for 30 sec for annealing of DNA oligomers the PCR primer, and then at 72° C. for 30 sec for extension of the chain. The obtained DNA fragments with approximately 1500 base pairs were digested at the Bgl II sites and were inserted into BamHI sites of pSG5. Thus a human PPAR γ expression plasmid named pSG5-hPPAR g was obtained.
Vector pGV-P2 digestion products was prepared by digestion using the restriction enzymes, NheI and XhoI, and purified by 1.0% agarose-gel electrophoresis. The DNA oligomers, S2 and AS2 obtained in Procedure 2, were mixed together and were incubated in a hot bath at 94° C. for 1 min. After the annealing was partially broken, they were further incubated at 25° C. for 1 hr. Thus double-stranded DNA with annealing of S2 and AS2 was formed. Then, the terminus of the double-stranded DNA with annealing of S2 and AS2 was phosphorylated with DNA polynucleotide kinase (TOYOBO CO., LTD). After that, it was ligated to the pGV-P2 digestion products which were prepared previously using the NheI site and XhoI site. Thus the reporter plasmid pGV-P2-PPRE was obtained.
Using the plasmid obtained by the procedures 3 and 4, transformation of Escherichia coli HB-101 strain was carried out by conventional methods. HB-101 strain having the plasmid was incubated in L-broth medium (containing 10 g of trypton (Difco), 5 g of yeast extract (Difco), 5 g of sodium chloride in 1 L of aqueous solution) containing 100 μg/ml of ampicillin at 37° C. for 17 hrs. Then, each plasmid was purified by the alkaline-SDS method and employed for the gene transfection to mammalian cells. After mixing the pSG5-hPPARg, PGV-P2-PPRE and LipofectAMINE reagent (GIBCO BRL), the human osteosarcoma MG63 was transiently transfected. Then the cells were recovered. The recovered cells were plated on a 96-well plate so as to be 30,000 cells/well and cultured in a CO2 incubator (NAPCO) at 37° C. for 24 hr under the condition of 5% CO2, 95%-RH.
Ten (10) nM of the following compound A (although compound A is described here as a representative compound, the compound is not limited to compound A, if the compound exerts a PPAR r agonistic activity) and various concentrations of the test compound were added to culturing medium of the cells prepared in the Procedure 5.

Rat white adipocytes [2] = assay: Stimulation of differentiation of the adipocytes (Oil Red O); assay type: cell-based; settings: Rattus norvegicus, Adipocyte, 120 h, 100 nM test compound; 5 days; Oil Red O ABS550; control = 100%, blank = 0%; Table 7; read-out: Rate of Differentiation (%)
Experimental: Rat white adipocytes contained in the white adipocyte culture kit, which was purchased from HOKUDO, were used. Mediums for proliferation and for differentiation-inducing, which were contained in the white adipocyte culture kit purchased from HOKUDO, were used.
Immediately after arrival of the purchased cells, all medium for transportation was discarded and replaced with 5 ml of proliferation medium (/25 cm^2-flask) and the cells were cultured for one day. Then, a cell suspension was prepared with proliferation medium so as to be 83,000 cells/mL, and the suspension was plated into a type I 96-well collagen-coated microplate (SUMITOMO BAKELITE CO., ltd.) so as to be 5,000 cells/well (60 μL/well). For the blank, the proliferation medium without the cells was plated into the well (blank well) of each plate.
Further, 1) in the group treated with the test compound, 3 μL/well of a solution in which the test compound (100 μM) was dissolved in DMSO solution and diluted with differentiation-inducing medium by 20 times (final concentration of the test compound: 100 nM, final concentration of DMSO: 0.1% (v/v)) were added to the well where the cells were plated. 2) In the control group, 3 μL/well of DMSO solution that was diluted with differentiation-inducing medium by 20 times (final concentration of DMSO: 0.1% (v/v)) were added to the well where the cells were plated. Further, 3) in the blank group, 3 μL/well of DMSO solution that was diluted with differentiation-inducing medium by 20 times (final concentration: 0.1% (v/v)) were added to the blank well.
After culturing for 5 days, all differentiation-inducing medium was discarded and replaced with 60 μL of 10% (v/v) of formaldehyde solution (for fixation) in each well and the cells were kept stationary for 20 min at room temperature. After this the fixative solution was discarded and replaced with 60 μL of 0.2% (v/v) Triton X (Sigma-Aldrich Japan K. K.) solution in each well and kept stationary for 5 min at the room temperature. Then all Triton X solution was discarded and replaced with 60 μL of 60% (v/v) isopropanol solution containing dissolved Oil Red 0 (Sigma-Aldrich Japan K. K.) so as to be 0.3%, which was adipose tissue staining solution, and the well was left stationary for 10 min at room temperature. After the adipose tissue staining solution was discarded, the well was washed twice with 60 μL of 60% (v/v) isopropanol solution. Then, 100 μL of the DMSO were added to each well and stirred for 5 min at room temperature. The absorbance was measured at 550 nm (ABS550) with a multi-plate reader (LabsSystems), and the stained amount by Oil Red 0 was determined. The measured level at ABS550 in the control group was defined as 100%, while the level at ABS550 in the blank group was defined as 0%. The differentiation rate (%) of the adipocytes treated with the test compound was calculated.

Rat white adipocytes [3] = assay: Inhibition of the differentiation of adipocytes (Oil Red O); assay type: cell-based; settings: Rattus norvegicus, Adipocyte, 120 h, 100 nM test compound; 5 days; Oil Red O ABS550; control = 100%, blank = 0%; Table 3; read-out: Rate of Differentiation (%)
Method in brief: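 Rat white preadipocytes, 5,000 cells/well, given differentiation medium with compound at 100 nM final (0.1% DMSO) for 5 days at 37 °C. Lipid stained with Oil Red O, eluted in DMSO, read at 550 nm; differentiation % relative to DMSO control (100%) and blank (0%).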

Structure (SMILES) | activity at 0.1 µM (Rat white adipocytes [3]) [%] | inhibition at 1 µM (TNF-α production; RAW264.7, 15 h) [%] | also measured
O=C(Nc1nc(-c2cccc([N+](=O)[O-])c2)cs1)c1cc([N+](=O)[O-])ccc1Cl [Example 61, N-[4-(3-Nitrophenyl)thiazol-2-yl]-(2-chloro-5-nitrophenyl)carboxamide] | – | – | activity at 0.1 µM [1]: 74.8%; inhibition at 1 µM (TNF-α production; 15 hr): 22.6%
O=C(Nc1ccc(C(=O)N2CCCC2)cc1)c1cc([N+](=O)[O-])ccc1Cl [Example 160, N-[4-(Pyrrolidinylcarbonyl)phenyl]-(2-chloro-5-nitrophenyl)carboxamide] | – | – | IC50 (human PPAR γ 2): 0.11 µM; activity at 0.1 µM (Rat white adipocytes [2]): 128%
CN1CCN(C(=O)c2ccc(NC(=O)c3cc([N+](=O)[O-])ccc3Cl)cc2)CC1 [Example 164, N-[4-(4-Methylpiperazin-1-ylcarbonyl)phenyl]-(2-chloro-5-nitrophenyl)carboxamide] | – | – | IC50 (human PPAR γ 2): 0.0006 µM; activity at 0.1 µM (Rat white adipocytes [2]): 125%
O=C(Nc1ccc(C(=O)N2CCN(c3ccccc3)CC2)cc1)c1cc([N+](=O)[O-])ccc1Cl [Example 165, N-[4-(4-Phenylpiperazin-1-ylcarbonyl)phenyl]-(2-chloro-5-nitrophenyl)carboxamide] | 85.8 | 15.7 | –
CCCCCCN(CCCC)c1ccc(-c2ccc(NC(=O)c3cc([N+](=O)[O-])ccc3Cl)cc2)cc1 [Example 199, N-[4-[4-(N-Butyl-N-hexylamino)phenyl]phenyl]-(2-chloro-5-nitrophenyl)carboxamide] | 35.8 | 20.8 | –
CCCCCN(CCC)c1ccc(-c2ccc(NC(=O)c3cc([N+](=O)[O-])ccc3Cl)cc2)cc1 [Example 211, N-[4-[4-(N-Pentyl-N-propylamino)phenyl]phenyl]-(2-chloro-5-nitrophenyl)carboxamide] | 37.3 | 27.6 | –
Nc1ccc(-c2csc(NC(=O)c3cc([N+](=O)[O-])ccc3Cl)n2)cc1 [Example 241, N-[4-(4-Aminophenyl)thiazol-2-yl]-(2-chloro-5 nitrophenyl)carboxamide] | 57.9 | 28 | –
CCOC(=O)NC(=O)Nc1ccc(-c2ccc(NC(=O)c3cc([N+](=O)[O-])ccc3Cl)cc2)cc1 [Example 244, N-[4-[4-(Ethoxycarbonylaminocarbonylamino)phenyl]phenyl]-(2-chloro-5-nitrophenyl)carboxamide] | 45 | 26.5 | –
